Ten molecules from ChEMBL document CHEMBL1201862, “PubChem BioAssay data set” (2004) can be followed below.

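A five-concentration, 48-hour dose response in 96-well plates underlies each endpoint, interpolated linearly between surrounding concentrations. At the GI50, growth is halved.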 Active and inactive are the calls of the source. Rule as the data show it: active = GI50 up to about 1.1 µM and inactive = higher.

Some test systems named below: A498; ACHN; COLO 205; DU-145; HCT-15; HT-29; K562; KM12; LOX IMVI; MDA-MB-231; MOLT-4; NCI-H23; OVCAR-8; RXF 393; SF-295; SF-539; SK-MEL-2; SNB-75; UACC-257; UACC-62.
Holding throughout (experiment): DTP human tumour cell line panel, 48 h

One may read the GI50 as the concentration at which growth is held to half of that of the control.

Regarding `c1ccc(C/C(=N\Nc2nc3ccccc3[nH]2)c2ccccn2)cc1`, the GI50 with A498 is 0.217 µM (active); with ACHN it was 0.0131 µM (active); in the assay with COLO 205, < 0.01 µM (active); in the assay on DU-145, 0.291 µM (active); with HCT-15, under 0.01 µM; in the assay with HT-29, < 0.01 µM (active). The GI50 in the assay with K562 was 0.0228 µM (active); in the assay with KM12, 0.16 µM (active); with LOX IMVI, 0.119 µM (active); in the assay with MDA-MB-231, 0.0396 µM (active); in the assay with MOLT-4, < 0.01 µM (active); in the assay on NCI-H23, 0.019 µM (active). Moreover, the concentration for 50% growth inhibition (GI50) was 0.0235 µM (active) in the assay on OVCAR-8; 0.166 µM (active) in the assay on RXF 393; 1.92 µM (inactive) in the assay with SF-295; 0.196 µM (active) in the assay with SF-539; 2.89 µM (inactive) in the assay on SK-MEL-2; 0.403 µM (active) with SNB-75. Further, the GI50 in the assay with UACC-257 was < 0.0107 µM (active); in the assay on UACC-62 it was 0.147 µM (active).
As to `N/C(=N\N/C=C1\C=Nc2cc(C(F)(F)F)ccc2C1=O)NO`, the GI50 was > 10 µM (inactive) in the assay with A498; > 10 µM (inactive) in the assay on ACHN; > 10 µM (inactive) in the assay on COLO 205; > 10 µM (inactive) in the assay on DU-145; over 10 µM in the assay on HCT-15; > 10 µM (inactive) with HT-29. Further, the GI50 in the assay with K562 is 7.67 µM (inactive); in the assay with KM12, 0.001 µM (active); in the assay on LOX IMVI it was > 10 µM (inactive); with MDA-MB-231, > 10 µM (inactive); with MOLT-4 it was > 10 µM (inactive); with NCI-H23, > 10 µM (inactive). Besides, the GI50 in the assay with OVCAR-8 is > 10 µM (inactive); in the assay on RXF 393, > 10 µM (inactive); with SF-295, > 10 µM (inactive); in the assay on SF-539, > 10 µM (inactive); in the assay on SK-MEL-2 it was > 10 µM (inactive); in the assay with SNB-75, 0.148 µM (active). Moreover, the GI50 with UACC-257 and with UACC-62 was > 10 µM (inactive) throughout.
For the molecule `COC(=O)C1=C(O)C(C(=O)OC)[C@]2(O)[C@H](C(=O)OC)[C@H]1C[C@@H](c1ccc(OC)c(OC)c1)[C@H]2C(=O)OC` (stereo partly specified), the GI50 in the assay on A498 was 18 µM (inactive); with ACHN, 25.8 µM (inactive); in the assay on COLO 205, 17.9 µM (inactive); with DU-145, 19.9 µM (inactive); in the assay on HCT-15, 14 µM; in the assay with HT-29, 36.9 µM (inactive). The GI50 in the assay on K562 is 13.6 µM (inactive); in the assay on KM12 it was 21.1 µM (inactive); in the assay with LOX IMVI, 13.4 µM (inactive); in the assay on MDA-MB-231 it was 34.2 µM (inactive); with MOLT-4, 17.5 µM (inactive); with NCI-H23, 19.8 µM (inactive). Besides, the GI50 is 13.3 µM (inactive) with OVCAR-8; 14.3 µM (inactive) with RXF 393; 17.9 µM (inactive) in the assay on SF-295; 4.78 µM (inactive) with SF-539; 20 µM (inactive) in the assay on SK-MEL-2; 7.8 µM (inactive) in the assay on SNB-75. For the same molecule, the GI50 with UACC-257 was 20.5 µM (inactive); with UACC-62, 22.9 µM (inactive).
For the molecule `CCO[C@@]1(COCc2ccccc2)OC(=O)C[C@@H]1N1C(=O)OC[C@@H]1c1ccccc1`, the GI50 was > 100 µM (inactive) in the assay with A498; > 100 µM (inactive) in the assay with ACHN; > 100 µM (inactive) in the assay with COLO 205; > 100 µM (inactive) with DU-145; over 100 µM in the assay with HCT-15; > 100 µM (inactive) with HT-29. In addition, the GI50 in the assay on K562 is > 100 µM (inactive); with KM12 it was 32.5 µM (inactive); in the assay with LOX IMVI it was > 100 µM (inactive); in the assay on MDA-MB-231, > 100 µM (inactive); with MOLT-4, 58.9 µM (inactive); with NCI-H23, > 100 µM (inactive). For the same molecule, the GI50 with OVCAR-8, in the assay on RXF 393, in the assay on SF-295, in the assay with SF-539, in the assay with SK-MEL-2 and with SNB-75 was > 100 µM (inactive) each time. In addition, the GI50 in the assay with UACC-257 and in the assay on UACC-62 was > 100 µM (inactive) in each case.
For `CCOP(=O)(OCC)/C(=C/c1ccccc1)CC(C)=O`, the GI50 in the assay with A498 was > 100 µM (inactive); in the assay with ACHN it was > 100 µM (inactive); in the assay with COLO 205 it was > 100 µM (inactive); with DU-145, > 100 µM (inactive); in the assay on HCT-15 it was over 100 µM; with HT-29, > 100 µM (inactive). Further, the GI50 with K562, with KM12, with LOX IMVI, with MDA-MB-231, in the assay on MOLT-4 and in the assay with NCI-H23 was > 100 µM (inactive) each time. Moreover, the GI50 in the assay on OVCAR-8, in the assay on RXF 393, with SF-295, with SF-539, in the assay on SK-MEL-2 and in the assay with SNB-75 was > 100 µM (inactive) each time. Further, the GI50 with UACC-257 and with UACC-62 was > 100 µM (inactive) each time.
With `O=C1CCc2c(sc3ncnc(Nc4cccc(Br)c4)c23)C1`, the GI50 is 14 µM (inactive) in the assay with A498; 1.69 µM (inactive) in the assay on ACHN; 7.36 µM (inactive) with COLO 205; 3.42 µM (inactive) with DU-145; 3.24 µM in the assay on HCT-15; 12.1 µM (inactive) with HT-29. The GI50 is 2.75 µM (inactive) in the assay with K562; 3.6 µM (inactive) in the assay on KM12; 3.49 µM (inactive) with LOX IMVI; 3.27 µM (inactive) in the assay on MDA-MB-231; 3.2 µM (inactive) in the assay on MOLT-4; 3.01 µM (inactive) in the assay with NCI-H23. The GI50 with OVCAR-8 was 3.26 µM (inactive); in the assay with RXF 393, 2.73 µM (inactive); in the assay with SF-295 it was 3.88 µM (inactive); in the assay with SF-539, 3.63 µM (inactive); in the assay with SK-MEL-2 it was 6.89 µM (inactive); in the assay with SNB-75 it was 3.7 µM (inactive). The results for the GI50 in the assay with UACC-257 and in the assay with UACC-62 were 3.55 µM (inactive) and 3.72 µM (inactive), respectively.
Take `CCN(CC)CC(O)CNc1ccc(NCC2CO2)c2c1C(=O)c1ccccc1C2=O` (stereo unspecified): the GI50 was 3.51 µM (inactive) in the assay with A498; 0.144 µM (active) with ACHN; 0.906 µM (active) with COLO 205; 1.63 µM (inactive) in the assay with DU-145; 0.638 µM in the assay on HCT-15; 0.553 µM (active) with HT-29. The GI50 is 0.0479 µM (active) in the assay with K562; 0.294 µM (active) in the assay on KM12; < 0.01 µM (active) in the assay with LOX IMVI; 0.536 µM (active) in the assay with MDA-MB-231; 0.499 µM (active) with NCI-H23; 0.0661 µM (active) in the assay with OVCAR-8. Moreover, the GI50 with RXF 393 was 0.397 µM (active); in the assay on SF-295, 1.05 µM (active); in the assay with SF-539, 1.32 µM (inactive); in the assay with SK-MEL-2, 0.226 µM (active); in the assay on SNB-75 it was 1.6 µM (inactive); in the assay on UACC-257, 1.48 µM (inactive). Also, in the assay with UACC-62, the GI50 is 0.56 µM (active).
For `OC(C1CO1)C(O)C1CO1` (stereo unspecified), the GI50 in the assay on A498 is 74 µM (inactive); with ACHN it was 4.04 µM (inactive); in the assay on COLO 205 it was 87.7 µM (inactive); with DU-145, 9.75 µM (inactive); with HCT-15, 55.3 µM; in the assay on HT-29, 63.5 µM (inactive). The GI50 was 81.3 µM (inactive) in the assay on K562; 87.9 µM (inactive) with KM12; 15.7 µM (inactive) in the assay with LOX IMVI; 132 µM (inactive) in the assay on MDA-MB-231; 3.68 µM (inactive) with MOLT-4; 20.1 µM (inactive) with NCI-H23. Besides, the GI50 was 55.2 µM (inactive) in the assay with OVCAR-8; 56.1 µM (inactive) in the assay on RXF 393; 23.9 µM (inactive) in the assay on SF-539; 61.1 µM (inactive) in the assay on SK-MEL-2; 7.96 µM (inactive) in the assay with SNB-75; 81.7 µM (inactive) in the assay on UACC-257. The GI50 with UACC-62 is 9.27 µM (inactive).
As for `COc1ccc(-c2nc(SCC(=O)N/N=C/c3ccc(N(C)C)cc3)[nH]c2-c2ccc(OC)cc2)cc1`, the GI50 in the assay on A498 was 71.9 µM (inactive); in the assay on ACHN, 51.9 µM (inactive); in the assay with COLO 205 it was 10.2 µM (inactive); with DU-145, 78.5 µM (inactive); in the assay on HCT-15 it was 46.3 µM; in the assay on HT-29, 34.6 µM (inactive). In addition, the GI50 is 18.5 µM (inactive) with K562; 32.6 µM (inactive) with KM12; 92.9 µM (inactive) with LOX IMVI; > 100 µM (inactive) with MDA-MB-231; > 100 µM (inactive) with NCI-H23; 84.7 µM (inactive) with OVCAR-8. Further, the GI50 in the assay with RXF 393 was 33.4 µM (inactive); with SF-295, 37 µM (inactive); with SF-539, > 100 µM (inactive); in the assay with SK-MEL-2, 86.1 µM (inactive); in the assay with SNB-75, 62.8 µM (inactive); in the assay on UACC-257 it was > 100 µM (inactive). In addition, the GI50 in the assay with UACC-62 was 46.7 µM (inactive).
Take `O=C1CSC(c2cccc(Cl)c2)N1c1c(O)c(Cl)cc(Br)c1Cl` (stereo unspecified): the GI50 in the assay on A498 is > 100 µM (inactive); with ACHN, 14.8 µM (inactive); in the assay with COLO 205 it was 23.5 µM (inactive); in the assay with DU-145, > 100 µM (inactive); in the assay with HCT-15, 15 µM; with HT-29, > 100 µM (inactive). Further, the GI50 is 45.2 µM (inactive) in the assay on K562; 34 µM (inactive) in the assay with KM12; 16.3 µM (inactive) with LOX IMVI; 14 µM (inactive) in the assay with MDA-MB-231; 23.6 µM (inactive) with MOLT-4; 27.7 µM (inactive) in the assay with NCI-H23. Besides, the GI50 was 16.7 µM (inactive) in the assay with RXF 393; > 100 µM (inactive) with SF-295; 28.8 µM (inactive) with SF-539; 14.9 µM (inactive) in the assay on SK-MEL-2; 29.4 µM (inactive) in the assay with SNB-75; 22.4 µM (inactive) with UACC-257. For the same molecule, the GI50 in the assay with UACC-62 is 22.6 µM (inactive).
